From patent US9605042B2, “Compositions and methods related to tauopathy” (REGENTS OF THE UNIVERSITY OF MINNESOTA, priority 2012, dated 2017)
Peptide text beside a SMILES is read from it. * marks the point of attachment. Cbz = O=C(OCc1ccccc1)*; CH2F = FC*

Columns and labels:
caspase-7 = target: T1, caspase-7 (Homo sapiens, UniProt P55210); assay: competitive binding assay against caspase-7 (PROMEGA-GLO 2); details: read-out: K value (caspase-7)
T1 sequence (P55210 24-198 limits assumed): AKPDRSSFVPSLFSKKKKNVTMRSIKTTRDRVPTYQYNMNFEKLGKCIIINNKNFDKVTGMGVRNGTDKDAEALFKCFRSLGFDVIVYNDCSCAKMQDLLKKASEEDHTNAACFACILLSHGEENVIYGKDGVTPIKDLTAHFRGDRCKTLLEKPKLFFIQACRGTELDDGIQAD
T1 sequence (P55210 207-303 limits assumed): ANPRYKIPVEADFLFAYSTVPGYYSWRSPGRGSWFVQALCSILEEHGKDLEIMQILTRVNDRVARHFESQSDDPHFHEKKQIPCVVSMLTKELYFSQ

rat hippocampal neurons = assay: GFP-tau-containing dendritic spines in neurons coexpressing DsRed and GFP-tau; format: cell-based; details: rising concentration of caspase-2 inhibitor
Description: FIG. 15. Images of rat hippocampal neurons coexpressing Dsred and GFP-tagged wild-type tau or tau P301 L mutant. Neurons were treated with caspase-2 inhibitor Ac-VDVAD-CHO (SEQ ID NO:36) or caspase-3 inhibitor Ac-DEVD-CHO (SEQ ID NO:37) for 1 day.
FIG. 16. Quantification of total spines and GFP-tau-containing spines in neurons coexpressing DsRed and GFP-tau.
Based on methods described in Hoover et al., Neuron 2010, dissociated rat hippocampal primary neuron cultures were prepared. Briefly, a 25 mm glass coverslip (thickness, 0.08 mm) was glued over a 22 mm hole in the bottom of a 35 mm tissue culture dish using silicone sealant. Dissociated neuronal cultures from rat hippocampi at P1 were prepared. Neurons were plated onto prepared 35 mm tissue culture dishes at a density of 1×10^6 cells per dish. The age of cultured neurons was counted from the day of plating (1 DIV). Neurons at 7 DIV were transfected using a standard calcium phosphate precipitation method and allowed to grow to maturity (>3 weeks) to be imaged. Neurons were transfected with equivalent concentrations of constructs encoding various tau proteins. The plasmid encoding DsRed was cotransfected with tau constructs to visualize dendritic spines. Recombinant tau protein or TCP35 protein (10 μM) was directly added to culture medium 1 hour before imaging to stimulate neuronal cultures. […]

rTg4510 neurons = assay: Excitatory synaptic transmission (mEPSCs) in rTg4510 neurons; format: cell-based, mouse; details: 20 μM for two hours
Description: FIG. 17. Excitatory Synaptic Transmission in rTg4510 neurons treated with caspase-2 inhibitor. (A) Mean mEPSC amplitudes of rTg4510 neurons (−/− and +/+) treated with 20 μM caspase-2 inhibitor (Ac-VDVAD-CHO; SEQ ID NO:36) for two hours. […] Caspase-2 inhibitor had no effect on rTg4510 (−/−) neurons. (B) Mean mEPSC frequency of rTg4510 neurons (−/− and +/+) treated with 20 μM caspase-2 inhibitor for two hours. Caspase-2 inhibitor had no effect on rTg4510 neurons (−/− or +/+) frequencies.
Miniature excitatory postsynaptic […] (mEPSCs) were recorded at −55 mV in artificial cerebrospinal fluid (aCSF) containing 100 LM AP7 (NMDAR antagonist, Tocris Bioscience, UK), 1 μM TTX (sodium channel blocker, Tocris Bioscience, UK) and 50 μM bicuculline (GABA receptor antagonist, Sigma-Aldrich, St. Louis, Mo.). Electrophysiology experiments were conducted using AXON DIGIDATA 1440A data acquisition system (Molecular Devices, LLC, Sunnyvale, Calif.), AXOPATCH 200B amplifier (Molecular Devices, LLC, Sunnyvale, Calif.), pCLAMP10 software (Molecular Devices. LLC, Sunnyvale, Calif.). Data was analyzed using AxoGraph X software (Berkeley, Calif.).

[1] = tested on: recombinant caspases -1, -2, -3, -6, -7, -8, -9, or -10; assay: Caspase cleavage assay of tau proteins (immunoblot with Tau-13); format: biochemical; details: 50 μM inhibitor, 37° C., 2 hours, tau from three sources
Description: FIG. 5. Caspase-2 cleaves tau in vitro, producing a 35 kDa fragment. Recombinant caspases -1, -2, -3, -6, -7, -8, -9, or -10 were incubated at 37° C. for 2 hours with tau proteins derived from three different sources. […] Caspases-1 and -8 may cleave tau proteins near the N-terminus and remove Tau-13 mAb epitopes, preventing detection of proteolytic products. Arrows denote the 35 kDa fragment, and arrowheads denote the tau fragment truncated at D421.
Tau proteins (200 ng immunoprecipitates from rTg[tauP301L]4510 or rTg[tauWT]21221 brain lysates, or 1 μl synthetic proteins generated with TNT T7 Quick Coupled Transcription/Translation System [Promega Corp., Madison, Wis.]) were diluted in assay buffer (20 mM HEPES pH 7.2, 10 mM DTT, 1 mM EDTA, 0.1% CHAPS) to a final volume of 50 μl. One unit of recombinant caspase was added to the reactions in the presence or absence of 50 μM z-VAD-fmk (Calbiochem, EMD Biochemicals, San Diego, Calif.). The reactions were incubated at 37° C. for […] and stopped by adding Laemmli sample buffer (62.5 mM Tris-HCl [pH 6.8], 25% glycerol, 2% SDS, and 0.01% bromophenol blue).

recombinant caspase-2 = target: T2, recombinant caspase-2 (Homo sapiens, UniProt P42575); assay: Screening assay: caspase-2-mediated cleavage of Asp314 peptide substrate (LabChip); format: biochemical; details: substrate coincubated with recombinant caspase-2 and inhibitor, fluorescence by LabChip
T2 construct: made in house
T2 sequence (P42575 170-325 limits assumed): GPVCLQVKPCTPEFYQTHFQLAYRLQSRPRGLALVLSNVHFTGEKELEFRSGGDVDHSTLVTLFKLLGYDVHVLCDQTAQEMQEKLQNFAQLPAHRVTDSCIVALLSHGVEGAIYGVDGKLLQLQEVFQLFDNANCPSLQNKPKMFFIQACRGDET
T2 sequence (P42575 348-452 limits assumed): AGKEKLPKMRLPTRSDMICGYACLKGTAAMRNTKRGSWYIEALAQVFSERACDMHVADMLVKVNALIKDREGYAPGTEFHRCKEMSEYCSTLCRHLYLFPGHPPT
Description: FIG. 10. Caspase-2-mediated cleavage of Asp314 peptide substrate. Synthetic peptide substrate FITC-AHX-GSVQIVYKPVDLSKVTS-COOH (SEQ ID NO:4) was designed based on amino acids 304-320 of tau protein that encompasses Asp314 cleavage site. The peptide substrate was cleaved by coincubating with recombinant caspase-2 and was separated from cleavage product by using LabChip drug discovery system. The fluorescence emitted by FITC group was monitored to measure peptide quantity.
FIG. 11. Caspase inhibitor blocks caspase-2-mediated cleavage of Asp314 peptide substrate. Synthetic peptide substrate was coincubated with recombinant caspase-2 in the presence of general caspase inhibitor z-VAD-fmk. The fluorescence of the substrate peptide was measured by using LabChip drug discovery system.
Unless otherwise stated, chemicals were purchased from Sigma-Aldrich (St. Louis, Mo.). Caspase-2 was made in-house; reference Caspase-2 inhibitor Z-VAD-FMK was purchased from BD Pharmingen (San Diego, Calif.). […]
Plates were screened in a LabChip 3000 (Caliper Life Sciences Inc., Hopkinton, Mass.) with temperature and relative humidity set to 20° C. and 50%. A 12-sipper chip sampled contents from each well and measured the fluorescent intensity of the substrate and product peaks. […] Data were analyzed using Caliper's HTS Well Analyzer software.

CC(=O)N[C@@H](Cc1ccc(O)cc1)C(=O)N[C@@H](CCCCN)C(=O)N1CCC[C@H]1C(=O)N[C@H](C(=O)N[C@H](C=O)CC(=O)O)C(C)C [SEQ ID NO:1, Ac-YKPVD-CHO] (Ac-YKPVD-aldehyde)
Ki (caspase-7): > 100 µM

Ac-VDVAD-CHO (Ac-VDVAD-aldehyde)
number of spines with tau (rat hippocampal neurons): decreases | mean mEPSC amplitude, rTg4510 (−/−) neurons (rTg4510 neurons): no effect | mean mEPSC frequency, rTg4510 neurons (−/− or +/+) (rTg4510 neurons): no effect | mean amplitude of AMPA mEPSCs, rTg4510 (+/+) neurons (rTg4510 neurons; compared to vehicle): significantly increased

benzyloxycarbonyl-Val-Ala-Asp-fluoromcthylketone (Cbz-Val-Ala-Asp-CH2F) [z-VAD-fmk]
cleavage of tau proteins by recombinant caspases [1]: blocked all cleavage | caspase-2-mediated cleavage of Asp314 peptide substrate (recombinant caspase-2): blocks
